Results taken from PMC10521662 (Biodesign Research, 2022).

Biological target: T1, β-PGM (β-phosphoglucomutase) (Pyrococcus horikoshii, UniProt O58510)
T1 construct: gene PH0749; recombinant, plasmid pET20b-βpgm, E. coli BL21(DE3), purified
T1 sequence (O58510 1-230): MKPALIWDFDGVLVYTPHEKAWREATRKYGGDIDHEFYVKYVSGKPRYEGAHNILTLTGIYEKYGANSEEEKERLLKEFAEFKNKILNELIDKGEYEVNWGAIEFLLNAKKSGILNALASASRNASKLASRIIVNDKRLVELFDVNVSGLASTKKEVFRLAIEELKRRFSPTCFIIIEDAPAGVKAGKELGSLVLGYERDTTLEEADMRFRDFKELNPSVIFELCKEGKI
Assay: G6P formation, G6PDH NADH assay at […] nm
Assay type: biochemical
Conditions: 10 mM β-G1P; 10 mM MgCl2; pH 7.0; 37 °C

O=P(O)(O)O[C@@H]1O[C@H](CO)[C@@H](O)[C@H](O)[C@H]1O [β-G1P]
G6P formation, G6PDH NADH assay at 340 nm: β-PGM was able to utilize β-G1P but showed no activity for α-G1P
